Test results as given in patent US12475972B2, “Prediction system for identifying key heterogeneous molecules driving tumor metastasis” (NANJING HANWEI PUBLIC HEALTH TECHNOLOGY CO., LTD., priority 2021, dated 2025).

What was measured:
[1] = test system: FASN; assay: Immunoblotting of FASN and FAK after EGCG; type: cell-based; details: dose-response
[2] = test system: BGC823-LPC1; assay: BGC823-LPC1 passive metastasis model; type: in vivo, mice; details: compared to the solvent control group
Method: A passive metastasis model was constructed by extracting primary cells BGC823-LPC1 from residual lung metastases after joint intervention on JWA and MDM2. On the second day after injecting cells into the tail vein of the model mice, they were grouped and administered. During the medication period, they were weighed on time. At the end of the modeling, the lung wet weight of each group of mice was measured, and the situation of lung metastases was observed.

[3] = test system: BGC823 cells and BGC823-LPC1; assay: Transwell experiment after FASN inhibitor EGCG; type: cell-based; details: different concentrations, 24 hours
Method: Further validation of the relationship between FASN and gastric cancer metastasis using transwell and scratch experiments: BGC823 cells and BGC823-LPC1 (primary cells of residual lung metastases in the animal model SP141 and JP3 combined intervention group) were treated with different concentrations of FASN inhibitor EGCG for 24 hours, followed by transwell experiments. […] The inhibition rate of perforation cells was similar in both types of cells (FIG. 20B). […] As shown in FIGS. 20A-20D, intervention on FASN can inhibit the migration of gastric cancer cells.

[4] = test system: BGC823-LPC2 cells; assay: BGC823-LPC2 passive metastasis model; type: in vivo, nude mice; details: compared with the solvent control group
Text: On the basis of the positive results obtained in the cell model, the animal model was then validated. A passive metastasis model was constructed using BGC823-LPC2 cells injected through the tail vein of nude mice. The mice were randomized on the second day and given control solvent, EGCG, WP-1130 alone, and WP-1130 plus sh-PFN1 lentivirus in a sequential manner.

[5] = test system: FASN; assay: Protein mass spectrometry of residual lung metastatic lesions; type: in vivo, mice
Text: On the basis of the above model, primary cells were extracted from the residual gastric cancer cells metastatic foci of the lungs of EGCG-treated mice, named BGC823-LPC2. Firstly, protein mass spectrometry analysis was continued on the residual metastatic lesions in the lungs of the EGCG group and the combined treatment group with SP141 and JP3, with a focus on observing the protein expression changes of each independent molecule identified in 1.4 above.

[6] = test system: MDM2; assay: MDM2 and JWA protein expression in BGC823 cells after SP141; type: cell-based; details: BGC823, 0, 0.25, 0.5 μM, 24 hours
Method: With a cell model, the mutual regulation between JWA and MDM2 proteins was examined. […] Thereafter, 0, 0.25, 0.5 μM SP141 were used to inhibit the expression level of MDM2 in gastric cancer cells BGC823 for 24 hours. […] Thus, it can be seen that as shown in FIGS. 9A-9C, in gastric cancer, JWA and MDM2 have no mutually regulatory relationship at the protein and mRNA levels, and their respective biological functions on gastric cancer cells are independent.

[7] = test system: MGC803; assay: CCK-8 half inhibitory concentration on gastric cancer cells; type: cell-based; details: CCK-8, MGC803
[8] = test system: BGC823-luc; assay: BGC823-luc tail vein passive metastasis model, in vivo fluorescence imaging; parameters: species or system nude mice
Method: In an in vivo model, fluorescent labeled gastric cancer cells BGC823-luc were injected into the tail vein of nude mice to construct a passive metastasis model of gastric cancer. Drug intervention began on the second day after cell inoculation (FIG. 11A). […] The weight of the mice of the drug intervention group was relatively stable and in good condition (FIG. 11B). […] Thus, as shown in FIGS. 11A-11D, the joint intervention of JWA and MDM2 has a synergistic inhibitory effect on gastric cancer metastasis in vivo.

[9] = test system: gastric cancer cells BGC823, SGC7901, and MFC; assay: Perforated cell count (transwell) after SP141; type: cell-based; details: different doses, 24 hours
[10] = test system: AGS cells; assay: Transwell assay in AGS cells, Flag-JWA plasmid and SP141; type: cell-based; details: compared to the control group
Text: Thus, as shown in FIGS. 10A-10B, the combined intervention of JWA and MDM2 has a synergistic inhibitory effect on gastric cancer cell migration.

[11] = test system: MFC; assay: CCK-8 half inhibitory concentration on gastric cancer cells; type: cell-based, mouse; details: CCK-8, MFC
[12] = test system: SGC7901; assay: as above; type: cell-based; details: CCK-8, SGC7901
[13] = test system: BGC823; assay: as above; type: cell-based; details: CCK-8, BGC823
[14] = test system: gastric cancer cell line MFC; assay: MFC abdominal implant metastasis model; type: in vivo, mouse
Method: The mouse-derived gastric cancer cell line MFC were selected to construct an abdominal implant metastasis model. On the second day of cell inoculation, different doses of SP141 were administered intraperitoneally for intervention. The modeling was completed and the number of abdominal metastatic nodules was recorded.

[15] = test system: AGS; assay: CCK-8 half inhibitory concentration on gastric cancer cells; type: cell-based; details: CCK-8, AGS
[16] = test system: B16F10 melanoma cells; assay: B16F10 tail vein passive lung metastasis model; type: in vivo, mice; details: different doses, dose-response
Method: A passive metastasis model was constructed by injecting B16F10 melanoma cells into the tail vein of mice. On the second day of cell inoculation, the mice were grouped, and Ctrl-R or JP1 peptides were injected intraperitoneally for intervention. […] Note: Ctrl-R peptide and JP1 peptide can be found in Cui J, et al. Theranotics 2020; 10 (18): Recorded in 8036-8050.
A passive metastatic mouse model was constructed using B16F10 cells. On the second day of cell inoculation, different doses of SP141 were used for intervention. At the end of the modeling, the number of metastatic nodules in the lungs was recorded. As shown in FIGS. 29A-29D, SP141 can inhibit the lung metastasis of melanoma in mice, and there is a dose-response relationship. […] Conclusion: inhibition of MDM2 by SP141 can effectively reduce in vivo metastasis of melanoma in mice.
The mouse model validation was further carried out on the basis of cell model validation. A lung metastasis model with B16F10 cell tail vein injection was constructed, and on the second day, the mice were randomly grouped according to their body weight for drug intervention. As shown in FIGS. 31A-31F, the joint intervention of JWA and MDM2 has a synergistic inhibitory effect on the in vivo metastasis of melanoma. […]

[17] = test system: gastric cancer cells BGC823, SGC7901, and MFC; assay: Cell scratch assay after SP141; type: cell-based
[18] = test system: MDM2; assay: MDM2 and JWA protein expression in B16F10 cells after SP141; type: cell-based; details: B16F10, 0, 0.25, 0.5 μM, 24 hours
Method: The relationship between the expression levels of JWA and MDM2 genes and the prognosis of melanoma population was analyzed using the TCGA database. […] Meanwhile, melanoma cells B16F10 were treated respectively with 0, 0.25, 0.5 μM SP141 for 24 hours, and the protein expression levels of MDM2 and JWA were measured.

[19] = test system: BGC823 LPC2 cells; assay: Scratch experiment after WP-1130; type: cell-based
[20] = test system: USP9X; assay: Immunoblotting of USP9X and p-AKT after WP-1130; type: cell-based; details: dose-response
[21] = test system: BGC823-LPC2; assay: Transwell experiment in BGC823-LPC2 cells; type: cell-based; details: treated 8 hours, dose-response
Method: To verify the relationship between USP9X and gastric cancer metastasis, cultured BGC823 LPC2 cells were first treated with USP9X inhibitor WP-1130 (existing product) for 8 hours before a transwell experiment. […] Thus, it can be seen that inhibiting the expression of USP9X can effectively reduce the migration of gastric cancer cells.
For the heterogeneous molecule PFN1, a low expression lentiviral plasmid sh-PFN1 was constructed due to the lack of commercialized inhibitor compounds. Transwell experiments were performed after transfection of sh-con and sh-PFN1 in BGC823-LPC2 for 48 hours.

With `O=C(O[C@@H]1Cc2c(O)cc(O)cc2O[C@@H]1c1cc(O)c(O)c(O)c1)c1cc(O)c(O)c(O)c1` [EGCG] as the compound, how does the “expression level of FASN protein” value [1] read?
Its value is “reduced”.

And the “transfer related protein FAK” value [1]?
The value was “correspondingly reduced”.

What about the lung wet weight [2] of the same compound?
Its lung wet weight is “significant decrease”.

And the “number of metastatic foci” value [2]?
The value was “significant decrease”.

What about the “number of perforation cells” value [3] of the same compound?
Its value is “significantly reduced”.

What about the lung metastatic foci [4] of the same compound?
Its lung metastatic foci is “did not decrease significantly”.

What about the lung wet weight [4] of the same compound?
Its lung wet weight is “not obvious”.

What about the “rest of the proteins inhibited” value ([5]; other independent molecules identified in 1.4) of the same compound?
The value was “less than 20%”.

And the FASN inhibited ([5]; residual lung metastatic lesions, vs SP141 and JP3 combined treatment group)?
Its FASN inhibited is 22%.

With `CCCCCCCCCCC[C@@H](C[C@@H]1OC(=O)[C@H]1CCCCCC)OC(=O)[C@H](CC(C)C)NC=O` [Orlistat] as the compound, how does the lung wet weight [2] read?
The lung wet weight was “significant decrease”.

And the “number of metastatic foci” value [2]?
The value was “significant decrease”.

How did the “protein expression level of JWA” value [6] turn out when `COc1ccc2[nH]c3c(-c4cccc5ccccc45)nccc3c2c1` [SP141] was run?
Its value is “no significant change”.

And the “protein expression level of MDM2” value [6]?
The value was “decreased with increasing SP141 dose”.

What about the IC50 [7] of the same compound?
Its IC50 is 616 nM.

And the “fluorescence intensity of lung metastases” value [8]?
The value was “weaker than that of the control group”.

What about the “number of perforated cells” value [9] of the same compound?
Its value is “gradually decreased with increasing dose”.

And the “number of cell perforations” value [10]?
The value was “decrease”.

And the IC50 [11]?
The IC50 was 345 nM.

And the IC50 [12]?
Its IC50 is 687 nM.

And the IC50 [13]?
The IC50 was 599 nM.

And the “number of abdominal metastatic nodules compared with the control group” value ([14]; 40 mg/kg group)?
The value was “statistically significant”.

What about the “MDM2 protein levels in residual tumor tissues” value ([14]; 40 mg/kg group vs control, immunoblotting) of the same compound?
Its value is “significant decrease”.

What about the “number of gastric cancer abdominal implantation metastases” value ([14]; different doses intraperitoneally) of the same compound?
The value was “could inhibit the number of gastric cancer abdominal implantation metastases”.

What about the IC50 [15] of the same compound?
The IC50 was 335 nM.

What about the “lung metastasis of melanoma” value [16] of the same compound?
Its value is “can inhibit”.

What about the “migration rate of the cells” value [17] of the same compound?
The value was “significantly slowed down”.

What about the “JWA protein expression level” value [18] of the same compound?
The value was “no significant change”.

And the “protein expression level of MDM2” value [18]?
Its value is “decreased with increasing SP141 dose”.

How did the lung metastatic foci [4] turn out when `CCC[C@H](NC(=O)/C(C#N)=C/c1cccc(Br)n1)c1ccccc1` [WP-1130] was run?
The lung metastatic foci was “decreased significantly”.

And the lung wet weight [4]?
Its lung wet weight is “decreased significantly”.

And the scratch experiment [19]?
The scratch experiment was “consistent with those of the small chamber perforation experiment”.

What about the “expression of USP9X protein” value [20] of the same compound?
The value was “reduced”.

And the “transfer related protein p-AKT” value [20]?
Its value is “correspondingly reduced”.

What about the “number of cell perforations” value [21] of the same compound?
The value was “significantly inhibit”.
